Reference: the supplement of paper PMC11061612

Tests used:
Experiment in all cases: combination Emax (second highest fraction inhibited in the dose matrix, 72 h); higher = more inhibition; extreme values may be limits of the assay
[1] = tested on: KYSE-150 (Esophageal Squamous Cell Carcinoma)
Outline: (§1)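 After 24 hours at 37°C and 5% CO2 in 1536-well plates, cells in DMEM/F12 or RPMI plus 10% FBS received two-drug dose matrices for 72 hours. Viability came from CellTiter-Glo 2.0 luminescence and was scaled as inhibition, anchored at 0 by vehicle wells and at 1 by blank wells. Combination Emax is taken as the second-highest inhibition in the matrix, and Bliss excess as the observed combination effect less EA + EB − EA·EB, with EA and EB the single-agent effects.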

[2] = tested on: PFSK-1 (Other Solid Carcinomas)
Outline: as §1

EW-18 (Ewing's Sarcoma) = tested on: EW-18 (Ewing's Sarcoma)
Outline: as §1

[3] = tested on: OCUB-M (Breast Carcinoma)
Outline: as §1

[4] = tested on: LOU-NH91 (Squamous Cell Lung Carcinoma)
Outline: as §1

EW-3 (Ewing's Sarcoma) = tested on: EW-3 (Ewing's Sarcoma)
Outline: as §1

[5] = tested on: NCI-H322M (Lung Adenocarcinoma)
Outline: as §1

U-87-MG (Glioblastoma) = tested on: U-87-MG (Glioblastoma)
Outline: as §1

[6] = tested on: HC-1 (Other Blood Carcinomas)
Outline: as §1

[7] = tested on: JHH-7 (Hepatocellular Carcinoma)
Outline: as §1

[8] = tested on: EMC-BAC-2 (Non-Small Cell Lung Carcinoma)
Outline: as §1

[9] = tested on: LC4-1 (B-Lymphoblastic Leukemia)
Outline: as §1

[10] = tested on: NCI-H1573 (Lung Adenocarcinoma)
Outline: as §1

[11] = tested on: OVISE (Ovarian Carcinoma)
Outline: as §1

Compound	combination Emax [1]	combination Emax [2]	combination Emax (EW-18 (Ewing's Sarcoma))	combination Emax [3]	combination Emax [4]	combination Emax (EW-3 (Ewing's Sarcoma))	combination Emax [5]	combination Emax (U-87-MG (Glioblastoma))	combination Emax [6]	combination Emax [7]	combination Emax [8]	combination Emax [9]	combination Emax [10]	combination Emax [11]
COc1nnc2ccc(N3CCC(c4ccc(OCCN5CCN(C)C(=O)[C@H]5C)cc4)CC3)nn12 [AZD5153] + C[C@@H]1COCCN1C2=NC(=NC(=C2)C3(CC3)[S@](=N)(=O)C)C4=C5C=CNC5=NC=C4 [AZD6738] (first compound max 1 µM, 7x7, partner max 10 µM)	0.746	0.648	0.781	0.735	0.871	0.851	0.865	0.698	0.713	0.324	0.816	0.975	0.709	0.754
CS(=O)(=O)CCNCc1ccc(-c2ccc3ncnc(Nc4ccc(OCc5cccc(F)c5)c(Cl)c4)c3c2)o1 [Lapatinib] + C[C@@H](Oc1cc(-c2cnn(C3CCNCC3)c2)cnc1N)c1c(Cl)ccc(F)c1Cl [Crizotinib] (first compound max 10 µM, 7x7, partner max 10 µM)	0.984	0.956	0.951	0.697	0.924	0.91	0.876	0.613	0.898	0.614	0.909	0.963	0.786	0.888
COc1nnc2ccc(N3CCC(c4ccc(OCCN5CCN(C)C(=O)[C@H]5C)cc4)CC3)nn12 [AZD5153] + CC1(C)CCC(CN2CCN(c3ccc(C(=O)NS(=O)(=O)c4ccc(NCC5CCOCC5)c([N+](=O)[O-])c4)c(Oc4cnc5[nH]ccc5c4)c3)CC2)=C(c2ccc(Cl)cc2)C1 [Venetoclax] (first compound max 1 µM, 7x7, partner max 1 µM)	0.627	0.595	0.615	0.39	0.641	0.751	0.515	0.546	0.557	0.348	0.661	1	0.356	0.549
Cc1c2c(nn1C)CSCc1cc(n(C)n1)CSc1cc(c3ccccc3c1)OCCCc1c(C(=O)O)n(C)c3c-2c(Cl)ccc13 [AZD5991] + CN(C)CCCOc1ccc(-c2ccc3ncc4c(c3c2)n(C2CCOCC2)c(=O)n4C)cn1 [AZD0156] (first compound max 1 µM, 7x7, partner max 1 µM)	0.453	0.993	0.94	0.949	0.47	0.662	0.279	0.253	0.37	0.14	0.745	0.962	0.394	0.283
CC(=O)c1c(C)c2cnc(Nc3ccc(N4CCNCC4)cn3)nc2n(C2CCCC2)c1=O [Palbociclib] + Cc1c2c(nn1C)CSCc1cc(n(C)n1)CSc1cc(c3ccccc3c1)OCCCc1c(C(=O)O)n(C)c3c-2c(Cl)ccc13 [AZD5991] (first compound max 10 µM, 7x7, partner max 1 µM)	0.585	0.969	0.899	0.882	0.35	0.772	0.501	0.29	0.654	0.203	0.643	0.937	0.434	0.25
Cn1cnc2c(F)c(Nc3ccc(Br)cc3Cl)c(C(=O)NOCCO)cc21 [Selumetinib] + C[C@@H]1COCCN1C2=NC(=NC(=C2)C3(CC3)[S@](=N)(=O)C)C4=C5C=CNC5=NC=C4 [AZD6738] (first compound max 10 µM, 7x7, partner max 10 µM)	0.622	0.595	0.696	0.249	0.353	0.822	0.88	0.457	0.793	0.311	0.557	0.91	0.663	0.54
CN(CCO)CC[C@H](CSc1ccccc1)Nc1ccc(S(=O)(=O)NC(=O)c2ccc(N3CCC([C@@H](O)c4ccccc4-c4ccc(Cl)cc4)CC3)cc2)cc1S(=O)(=O)C(F)(F)F [AZD4320] + C=CCn1c(=O)c2cnc(Nc3ccc(N4CCN(C)CC4)cc3)nc2n1-c1cccc(C(C)(C)O)n1 [AZD1775] (first compound max 1 µM, partner max 1 µM)	0.432	0.742	0.888	0.487	0.822	0.962	0.851	0.187	1	0.524	0.425	1	0.291	0.939
CC1(C)CCC(CN2CCN(c3ccc(C(=O)NS(=O)(=O)c4ccc(NCC5CCOCC5)c([N+](=O)[O-])c4)c(Oc4cnc5[nH]ccc5c4)c3)CC2)=C(c2ccc(Cl)cc2)C1 [Venetoclax] + C1CN(CCC1(C(=O)N[C@@H](CCO)C2=CC=C(C=C2)Cl)N)C3=NC=NC4=C3C=CN4 [Capivasertib] (first compound max 1 µM, 7x7, partner max 3 µM)	0.405	0.518	0.662	0.942	0.36	0.683	0.167	0.403	0.452	0.149	0.35	1	0.194	0.456
Cc1c2c(nn1C)CSCc1cc(n(C)n1)CSc1cc(c3ccccc3c1)OCCCc1c(C(=O)O)n(C)c3c-2c(Cl)ccc13 [AZD5991] + C[C@@H]1COCCN1C2=NC(=NC(=C2)C3(CC3)[S@](=N)(=O)C)C4=C5C=CNC5=NC=C4 [AZD6738] (first compound max 1 µM, 7x7, partner max 10 µM)	0.543	1	0.928	1	0.426	0.892	0.94	0.494	0.926	0.268	0.862	0.981	0.516	0.615
CC1(C)CCC(CN2CCN(c3ccc(C(=O)NS(=O)(=O)c4ccc(NCC5CCOCC5)c([N+](=O)[O-])c4)c(Oc4cnc5[nH]ccc5c4)c3)CC2)=C(c2ccc(Cl)cc2)C1 [Venetoclax] + C[C@@H](Nc1cc(F)cc(F)c1)c1cc(C(=O)N(C)C)cc2c(=O)cc(N3CCOCC3)oc12 [AZD8186] (first compound max 1 µM, 7x7, partner max 3 µM)	0.161	0.194	0.599	0.276	0.221	0.736	0.237	0.44	0.616	0.0915	0.2	1	0.162	0.238
NC1(C(=O)N[C@@H](CCO)c2ccc(Cl)cc2)CCN(c2ncnc3[nH]ccc23)CC1 [Capivasertib] + CC(C)n1c(=O)n(C)c2cnc3cc(F)c(-c4ccc(OCCCN5CCCCC5)nc4)cc3c21 [AZD1390] (first compound max 10 µM, 7x7, partner max 0.3 µM)	0.375	0.462	0.596	1	0.456	0.258	0.313	0.578	0.508	0.315	0.462	0.465	0.195	0.387
Cc1c2c(nn1C)CSCc1cc(n(C)n1)CSc1cc(c3ccccc3c1)OCCCc1c(C(=O)O)n(C)c3c-2c(Cl)ccc13 [AZD5991] + Cn1cnc2c(F)c(Nc3ccc(Br)cc3Cl)c(C(=O)NOCCO)cc21 [Selumetinib] (first compound max 1 µM, 7x7, partner max 3 µM)	0.488	1	0.927	0.979	0.581	0.549	0.566	0.372	0.402	0.278	0.834	1	0.586	0.291
COc1nnc2ccc(N3CCC(c4ccc(OCCN5CCN(C)C(=O)[C@H]5C)cc4)CC3)nn12 [AZD5153] + C=CCn1c(=O)c2cnc(Nc3ccc(N4CCN(C)CC4)cc3)nc2n1-c1cccc(C(C)(C)O)n1 [AZD1775] (first compound max 1 µM, partner max 1 µM)	0.666	0.744	0.687	0.572	0.948	0.622	0.841	0.53	0.948	0.316	0.735	0.941	0.637	0.767
COc1cc2ncnc(Nc3ccc(F)c(Cl)c3)c2cc1OCCCN1CCOCC1 [Gefitinib] + CC(C)n1c(=O)n(C)c2cnc3cc(F)c(-c4ccc(OCCCN5CCCCC5)nc4)cc3c21 [AZD1390] (first compound max 10 µM, 7x7, partner max 0.3 µM)	0.353	0.265	0.229	0.154	0.404	0.254	0.718	0.0691	0.387	0.115	0.32	0.221	0.162	0.197
